The target in test [1] is T1, E3 ubiquitin-protein ligase XIAP (Homo sapiens, UniProt P98170). Briefly: Counter Screen using XIAP-Bir3 for Chemical Antagonists of Bir1/2 domains of IAP-family anti-apoptotic proteins. [Related pubchem assays (depositor defined):AID1018, AID1449, AID1514, AID1638, AID1749, AID1750, AID488957, AID488963]. Background: Counterscreens check selectivity or assay interference.

Test [2] deals with T1, E3 ubiquitin-protein ligase XIAP. Put plainly: XIAP antagonists, biochemical, IAP family, fluorescence polarization (AID 1018). Format: functional. (In fluorescence polarisation assays a small probe gives low polarisation when free and higher when bound to something large.)
Test [3] has as its target Eukaryotic translation initiation factor 4H (Homo sapiens, UniProt Q15056). Briefly: human eIF4H binding inhibitors, primary screen, translation initiation inhibitor project, biochemical, uHTS, fluorescence polarization (AID 2012).
The target in test [4] is T2, Voltage-gated N-type calcium channel alpha-1B subunit/Amyloid beta A4 precursor protein-binding family A member 1 (Homo sapiens, UniProt Q00975+Q02410). Format: protein assay.
Test [5] concerns the target T2, Voltage-gated N-type calcium channel alpha-1B subunit/Amyloid beta A4 precursor protein-binding family A member 1. Format: protein assay. The source holds these as a separate data set.
Test [6] has as its target Polyadenylate-binding protein 1 (Homo sapiens, UniProt P11940). Briefly: PABP poly(A) RNA binding inhibitors, primary screen, biochemical, fluorescence polarization, uHTS (AID 2014).
A short description of test [7]: microbe, parasite or virus in culture. Format: functional. The following applies: Mycobacterium tuberculosis.
Test [8] can be described thus: THP-1 cell cytotoxicity, dose response, cytotoxicity control for non-replicating M. tuberculosis project (AID 489025). Format: functional.
A short description of test [9]: HepG2 cell cytotoxicity, dose response, cytotoxicity control for non-replicating M. tuberculosis project (AID 489018). Format: functional. The settings on record: Mycobacterium tuberculosis.
For test [10], the target named is T3, Ubiquitin-conjugating enzyme E2 N (Homo sapiens, UniProt P61088).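 Also: Dose-response confirmation in a TR-FRET assay detecting UBC13-driven polyubiquitin chain formation, inhibition measured.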
T3 sequence (P61088 whole entry): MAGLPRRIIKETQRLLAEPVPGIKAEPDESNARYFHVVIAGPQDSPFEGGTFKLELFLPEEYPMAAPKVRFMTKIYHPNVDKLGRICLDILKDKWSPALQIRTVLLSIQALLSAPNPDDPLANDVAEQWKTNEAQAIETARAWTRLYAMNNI
Format: functional.

The nature of test [11]: Vero E6 cell cytotoxicity, dose response, cytotoxicity control for non-replicating M. tuberculosis project, secondary assay (AID 492998). Format: functional, VeroE6. The settings on record: Vero C1008.
Another test in a line: cells. Format: functional.
Test [12] addresses T4, Insulin-degrading enzyme (Homo sapiens, UniProt P14735).
T4 sequence (P14735 whole entry): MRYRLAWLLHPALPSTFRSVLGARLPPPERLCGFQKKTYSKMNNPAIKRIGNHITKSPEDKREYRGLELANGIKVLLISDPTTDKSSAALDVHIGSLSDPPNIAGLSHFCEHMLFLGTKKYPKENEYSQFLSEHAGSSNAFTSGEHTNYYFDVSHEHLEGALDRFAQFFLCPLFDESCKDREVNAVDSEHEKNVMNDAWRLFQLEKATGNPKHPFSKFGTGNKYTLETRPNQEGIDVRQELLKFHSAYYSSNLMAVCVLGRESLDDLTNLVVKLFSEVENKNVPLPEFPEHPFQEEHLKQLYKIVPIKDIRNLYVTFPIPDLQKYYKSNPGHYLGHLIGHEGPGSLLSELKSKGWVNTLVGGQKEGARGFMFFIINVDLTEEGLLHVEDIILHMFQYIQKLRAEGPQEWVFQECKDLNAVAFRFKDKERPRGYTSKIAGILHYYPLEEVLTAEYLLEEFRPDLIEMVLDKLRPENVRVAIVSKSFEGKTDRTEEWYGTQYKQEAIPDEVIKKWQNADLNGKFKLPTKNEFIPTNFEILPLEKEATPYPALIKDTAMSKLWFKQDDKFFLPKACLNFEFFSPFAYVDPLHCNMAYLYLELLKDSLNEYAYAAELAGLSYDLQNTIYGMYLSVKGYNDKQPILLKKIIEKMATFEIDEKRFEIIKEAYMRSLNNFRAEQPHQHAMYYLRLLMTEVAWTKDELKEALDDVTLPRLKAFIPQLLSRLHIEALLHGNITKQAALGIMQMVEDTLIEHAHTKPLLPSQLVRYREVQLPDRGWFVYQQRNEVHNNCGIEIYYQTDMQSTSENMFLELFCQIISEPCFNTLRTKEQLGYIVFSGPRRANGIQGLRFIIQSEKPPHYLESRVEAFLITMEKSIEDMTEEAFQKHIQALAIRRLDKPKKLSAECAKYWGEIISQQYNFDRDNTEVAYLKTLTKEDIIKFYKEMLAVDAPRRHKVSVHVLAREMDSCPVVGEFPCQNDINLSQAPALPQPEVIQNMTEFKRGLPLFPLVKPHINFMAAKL
Briefly: activators of recombinant IDE enzyme, dose response, counter-screen for IDE activator project, biochemical, fluorescence polarization (AID 588681).

For test [13], the target named is T4, Insulin-degrading enzyme. Put plainly: activators of endogenous IDE in HEK cells, dose response, cell-based, fluorescence polarization (AID 588439). Format: functional.
In test [14] the test system is HEK293. Briefly: HEK cell cytotoxicity by LDH release, dose response, cytotoxicity control for IDE activator project, fluorescence, HEK cells (AID 588440).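 Also: cytotoxicity by LDH release measuring loss of membrane integrity.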 Format: functional, cell-based. The settings on record: Homo sapiens.
Test [15] relates to HEK293. Briefly: optical interference in Abeta FP readout, dose response, artefact control for IDE activator project, biochemical, fluorescence polarization (AID 588442). Format: functional, cell-based. The following applies: Homo sapiens.
Test [16] is described as follows: Shn3 3'UTR reporter inhibitors, dose response, cell-based, Clone20 osteoblasts, firefly luciferase, cherry-picked (AID 624132).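 Also: firefly luciferase luminescence from reporter carrying the Shn3 3'UTR in osteoblasts.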 Format: functional.
Test [17] in a line: HepG2 cell cytotoxicity, dose response, cytotoxicity control for Shn3 inhibitor project, CellTiter-Glo, cherry-picked (AID 624134). Format: functional, cell-based.
A short description of test [18]: control 3'UTR Renilla luciferase suppression, dose response, counter-screen for Shn3 inhibitor project, cell-based, Clone20-Shn3RL, cherry-picked (AID 624133). Format: functional.
Test [19] has as its target Runt-related transcription factor 1/Core-binding factor subunit beta (Homo sapiens, UniProt Q01196+Q13951). Put plainly: Confirmation of compounds inhibiting the binding between the RUNX1 Runt domain and CBFb-SMMHC via a fluorescence resonance energy transfer (FRET) assay. [Related pubchem assays (depositor defined):AID1434, AID1438, AID1496, AID1550, AID1645]. Format: protein assay.

In test [20] the target is T5, Heat shock factor protein 1 (Mus musculus, UniProt P38532).
T5 sequence (P38532 whole entry): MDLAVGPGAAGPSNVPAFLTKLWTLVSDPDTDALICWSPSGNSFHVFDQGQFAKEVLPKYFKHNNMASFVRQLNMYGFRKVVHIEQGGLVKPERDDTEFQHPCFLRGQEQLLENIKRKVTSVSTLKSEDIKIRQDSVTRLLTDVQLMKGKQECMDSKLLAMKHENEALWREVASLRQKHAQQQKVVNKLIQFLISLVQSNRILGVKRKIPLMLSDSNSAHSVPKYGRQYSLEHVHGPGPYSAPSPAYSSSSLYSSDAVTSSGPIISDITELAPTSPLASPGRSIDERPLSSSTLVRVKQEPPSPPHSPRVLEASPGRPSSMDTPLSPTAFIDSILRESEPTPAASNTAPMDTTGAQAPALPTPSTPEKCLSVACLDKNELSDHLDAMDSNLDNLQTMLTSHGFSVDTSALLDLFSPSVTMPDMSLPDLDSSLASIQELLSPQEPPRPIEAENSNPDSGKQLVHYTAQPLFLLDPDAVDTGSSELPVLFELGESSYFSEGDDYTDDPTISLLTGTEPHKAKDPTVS
Put plainly: inhibition of MG132-induced HSE-luciferase signal, confirmation, cell-based, NIH3T3, luminescence, dose retest (AID 2382).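 Also: NIH3T3 fibroblasts with HSF1-driven luciferase reporter stressed by proteasome inhibitor MG132; luminescence from HSF1-driven luciferase expression after 8 hours of MG132 stress.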 Format: functional.

The target of test [21] is T6, Corticotropin-releasing factor receptor 2/Corticotropin-releasing factor-binding protein (Homo sapiens, UniProt P24387+Q13324).
T6 sequence (Q13324 whole entry): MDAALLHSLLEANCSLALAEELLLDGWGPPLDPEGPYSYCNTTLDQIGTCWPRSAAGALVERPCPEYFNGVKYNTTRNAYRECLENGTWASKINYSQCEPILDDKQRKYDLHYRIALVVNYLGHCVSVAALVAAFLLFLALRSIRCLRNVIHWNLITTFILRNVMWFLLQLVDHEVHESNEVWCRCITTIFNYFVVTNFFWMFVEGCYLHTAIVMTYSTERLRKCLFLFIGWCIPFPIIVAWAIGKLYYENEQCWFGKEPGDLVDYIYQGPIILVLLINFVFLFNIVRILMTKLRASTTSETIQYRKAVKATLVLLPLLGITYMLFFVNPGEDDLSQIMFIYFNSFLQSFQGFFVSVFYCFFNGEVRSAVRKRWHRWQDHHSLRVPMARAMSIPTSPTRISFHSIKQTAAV
T6 sequence (P24387 whole entry): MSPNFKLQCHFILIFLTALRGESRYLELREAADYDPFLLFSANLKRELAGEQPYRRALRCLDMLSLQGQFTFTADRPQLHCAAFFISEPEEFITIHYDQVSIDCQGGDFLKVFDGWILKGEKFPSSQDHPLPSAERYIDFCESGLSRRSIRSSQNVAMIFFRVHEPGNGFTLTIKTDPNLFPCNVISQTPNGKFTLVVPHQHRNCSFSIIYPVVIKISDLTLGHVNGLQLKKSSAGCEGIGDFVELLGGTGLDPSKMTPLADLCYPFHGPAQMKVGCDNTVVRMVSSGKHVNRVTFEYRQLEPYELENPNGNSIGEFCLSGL
Briefly: activators of CRF receptor 2 with binding protein – uHTS hits, confirmation (AID 602473). The following applies: read-out: EC50_Mean. Format: functional.

Molecules are shown by their SMILES. Calls of active or inactive are those of the source. Some results are limits rather than exact numbers.

T2 sequence (Q00975 whole entry): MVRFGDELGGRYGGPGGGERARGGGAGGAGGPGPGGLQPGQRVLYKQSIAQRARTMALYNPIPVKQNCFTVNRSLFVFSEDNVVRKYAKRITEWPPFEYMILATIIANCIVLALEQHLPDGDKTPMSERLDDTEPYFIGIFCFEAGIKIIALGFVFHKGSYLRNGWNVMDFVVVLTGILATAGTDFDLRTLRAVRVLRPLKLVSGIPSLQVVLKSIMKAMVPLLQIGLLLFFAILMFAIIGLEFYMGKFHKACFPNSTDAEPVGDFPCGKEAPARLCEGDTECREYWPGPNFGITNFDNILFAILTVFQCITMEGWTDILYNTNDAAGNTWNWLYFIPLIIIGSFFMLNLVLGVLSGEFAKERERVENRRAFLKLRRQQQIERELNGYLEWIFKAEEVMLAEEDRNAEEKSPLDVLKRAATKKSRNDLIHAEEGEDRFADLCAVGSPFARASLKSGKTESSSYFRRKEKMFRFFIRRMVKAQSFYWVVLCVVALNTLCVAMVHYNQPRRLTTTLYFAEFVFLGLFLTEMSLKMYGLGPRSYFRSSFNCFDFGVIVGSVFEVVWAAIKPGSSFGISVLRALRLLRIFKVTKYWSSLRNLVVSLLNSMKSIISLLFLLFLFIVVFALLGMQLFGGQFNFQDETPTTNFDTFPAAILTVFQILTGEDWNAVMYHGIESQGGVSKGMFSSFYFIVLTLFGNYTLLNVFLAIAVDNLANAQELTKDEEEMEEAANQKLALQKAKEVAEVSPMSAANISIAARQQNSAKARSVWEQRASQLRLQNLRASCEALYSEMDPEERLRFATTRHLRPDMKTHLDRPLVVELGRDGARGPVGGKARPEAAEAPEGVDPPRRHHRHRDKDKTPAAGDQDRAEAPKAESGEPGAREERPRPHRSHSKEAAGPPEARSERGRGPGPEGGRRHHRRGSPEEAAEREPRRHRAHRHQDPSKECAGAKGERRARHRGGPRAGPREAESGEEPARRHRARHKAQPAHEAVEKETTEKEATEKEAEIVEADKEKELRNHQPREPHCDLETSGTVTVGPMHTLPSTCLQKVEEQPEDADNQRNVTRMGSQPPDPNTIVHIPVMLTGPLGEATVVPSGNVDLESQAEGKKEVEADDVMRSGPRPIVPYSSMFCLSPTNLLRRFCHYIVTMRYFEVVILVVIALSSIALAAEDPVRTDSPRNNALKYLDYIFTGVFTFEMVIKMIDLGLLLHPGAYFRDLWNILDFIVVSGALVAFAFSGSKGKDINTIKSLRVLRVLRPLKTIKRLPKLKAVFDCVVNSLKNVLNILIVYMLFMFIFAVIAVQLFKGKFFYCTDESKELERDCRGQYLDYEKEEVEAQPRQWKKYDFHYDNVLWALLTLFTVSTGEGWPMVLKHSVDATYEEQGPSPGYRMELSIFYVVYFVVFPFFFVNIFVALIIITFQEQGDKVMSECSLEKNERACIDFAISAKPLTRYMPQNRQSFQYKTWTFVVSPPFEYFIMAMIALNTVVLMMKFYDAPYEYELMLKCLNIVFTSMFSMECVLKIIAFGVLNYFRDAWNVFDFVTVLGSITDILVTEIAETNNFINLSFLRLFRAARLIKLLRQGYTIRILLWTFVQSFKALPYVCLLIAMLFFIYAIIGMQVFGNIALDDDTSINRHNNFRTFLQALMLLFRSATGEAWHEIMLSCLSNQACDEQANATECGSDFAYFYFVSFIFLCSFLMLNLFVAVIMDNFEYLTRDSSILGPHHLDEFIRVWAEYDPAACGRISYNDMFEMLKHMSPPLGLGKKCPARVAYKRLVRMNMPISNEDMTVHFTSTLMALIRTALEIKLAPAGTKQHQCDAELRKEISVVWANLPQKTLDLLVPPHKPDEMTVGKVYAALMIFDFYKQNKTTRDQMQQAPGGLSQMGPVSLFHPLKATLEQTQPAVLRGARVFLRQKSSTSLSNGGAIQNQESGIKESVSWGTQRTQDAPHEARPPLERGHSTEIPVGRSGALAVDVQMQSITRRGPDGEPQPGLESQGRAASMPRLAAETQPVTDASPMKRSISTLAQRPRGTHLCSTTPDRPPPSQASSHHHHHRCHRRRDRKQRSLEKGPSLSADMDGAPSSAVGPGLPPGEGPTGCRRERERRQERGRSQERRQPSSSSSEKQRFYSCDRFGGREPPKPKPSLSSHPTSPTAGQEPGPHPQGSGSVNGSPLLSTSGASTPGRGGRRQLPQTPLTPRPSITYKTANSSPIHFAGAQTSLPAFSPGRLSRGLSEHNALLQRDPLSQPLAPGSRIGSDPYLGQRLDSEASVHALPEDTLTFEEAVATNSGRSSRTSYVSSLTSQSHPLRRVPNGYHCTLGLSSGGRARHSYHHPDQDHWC
T2 sequence (Q02410 whole entry): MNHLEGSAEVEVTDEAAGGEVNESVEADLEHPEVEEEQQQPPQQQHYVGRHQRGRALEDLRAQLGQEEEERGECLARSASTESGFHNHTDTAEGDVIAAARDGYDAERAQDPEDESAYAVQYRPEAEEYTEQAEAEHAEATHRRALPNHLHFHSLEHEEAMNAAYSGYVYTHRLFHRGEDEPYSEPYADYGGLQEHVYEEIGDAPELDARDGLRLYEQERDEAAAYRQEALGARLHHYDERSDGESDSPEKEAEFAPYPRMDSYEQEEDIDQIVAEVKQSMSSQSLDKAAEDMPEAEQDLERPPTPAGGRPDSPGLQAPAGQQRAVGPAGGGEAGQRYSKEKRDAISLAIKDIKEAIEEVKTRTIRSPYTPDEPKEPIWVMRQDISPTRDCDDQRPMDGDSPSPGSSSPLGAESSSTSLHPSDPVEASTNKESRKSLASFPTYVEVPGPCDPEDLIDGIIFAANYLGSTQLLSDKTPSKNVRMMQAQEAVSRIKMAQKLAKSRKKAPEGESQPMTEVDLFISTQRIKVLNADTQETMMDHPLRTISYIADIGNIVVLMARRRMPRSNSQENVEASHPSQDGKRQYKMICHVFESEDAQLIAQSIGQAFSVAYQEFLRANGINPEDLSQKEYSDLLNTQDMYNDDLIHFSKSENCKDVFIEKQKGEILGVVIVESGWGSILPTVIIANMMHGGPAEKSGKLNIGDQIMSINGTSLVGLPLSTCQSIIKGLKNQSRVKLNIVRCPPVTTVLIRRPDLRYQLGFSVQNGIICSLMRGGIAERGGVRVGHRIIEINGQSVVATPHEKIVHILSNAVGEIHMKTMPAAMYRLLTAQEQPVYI
T1 sequence (P98170 whole entry): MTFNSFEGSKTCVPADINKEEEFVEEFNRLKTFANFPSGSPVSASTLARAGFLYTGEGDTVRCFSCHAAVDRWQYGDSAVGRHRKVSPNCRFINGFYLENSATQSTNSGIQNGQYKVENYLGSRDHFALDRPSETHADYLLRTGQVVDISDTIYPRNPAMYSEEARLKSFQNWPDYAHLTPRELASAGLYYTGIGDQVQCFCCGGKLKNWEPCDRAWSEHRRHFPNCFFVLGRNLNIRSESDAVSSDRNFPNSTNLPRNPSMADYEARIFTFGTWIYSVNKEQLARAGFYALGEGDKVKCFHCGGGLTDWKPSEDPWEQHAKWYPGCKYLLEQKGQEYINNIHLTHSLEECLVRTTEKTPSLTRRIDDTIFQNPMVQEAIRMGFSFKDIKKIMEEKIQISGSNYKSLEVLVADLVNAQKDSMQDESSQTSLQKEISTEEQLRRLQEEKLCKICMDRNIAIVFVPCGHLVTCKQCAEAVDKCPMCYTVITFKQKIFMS
Sequence of Polyadenylate-binding protein 1 (P11940 whole entry): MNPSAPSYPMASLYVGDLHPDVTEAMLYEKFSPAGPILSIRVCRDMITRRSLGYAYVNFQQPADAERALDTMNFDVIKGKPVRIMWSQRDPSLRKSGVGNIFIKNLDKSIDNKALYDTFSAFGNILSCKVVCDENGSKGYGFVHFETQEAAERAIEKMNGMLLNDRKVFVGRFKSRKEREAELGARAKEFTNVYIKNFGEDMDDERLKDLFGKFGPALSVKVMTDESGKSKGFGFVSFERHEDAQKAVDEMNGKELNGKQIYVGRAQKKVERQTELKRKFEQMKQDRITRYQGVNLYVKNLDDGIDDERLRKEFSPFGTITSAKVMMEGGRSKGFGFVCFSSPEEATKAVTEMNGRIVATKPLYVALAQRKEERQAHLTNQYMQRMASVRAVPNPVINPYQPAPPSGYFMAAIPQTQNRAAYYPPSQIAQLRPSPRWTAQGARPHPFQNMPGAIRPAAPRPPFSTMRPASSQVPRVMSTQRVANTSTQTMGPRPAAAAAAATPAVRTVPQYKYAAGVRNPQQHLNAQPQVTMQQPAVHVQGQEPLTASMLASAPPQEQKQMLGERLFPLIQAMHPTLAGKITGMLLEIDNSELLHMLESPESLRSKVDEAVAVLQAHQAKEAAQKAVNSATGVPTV

Broadly, the IC50 is the point on the concentration scale where inhibition reaches its midpoint. Regarding `O=C1C2C3c4ccccc4C(c4ccccc43)C2C(=O)N1c1ccncc1` (configuration not stated), the IC50 in test [1] was > 100 µM (inactive); in [2], > 100 µM (not active).

For the compound `CC(/C=C/c1ccco1)=N/NC(=O)Cc1cccs1`, the IC50 was 23.6 µM (active) in [3], 18.9 µM (active) in test [4], 24.6 µM (active) in test [5] and > 100 µM (inactive) in [6].

The AC50 is the concentration at which the activity in the assay is half-maximal. On to `CCCCCCCNC(=O)C1(CC2CC(c3cccc(Br)c3)=NO2)CCNCC1` (configuration not stated), for which the CC50 was 6.71 µM (active) in test [7], 6.82 µM (active) in [8], 5.99 µM (active) in test [9] and 15.2 µM (active) in [11]. The IC50 is > 20 µM (inactive) in test [10], 17.2 µM (active) in “cells” and 7.51 µM (active) in the test with HEK293 [14]. Moreover, the EC50 was > 54.7 µM (inactive) at Insulin-degrading enzyme [12], 54.5 µM (inactive) at Insulin-degrading enzyme [13] and > 55.9 µM (inactive) in the test with HEK293 [15]. Besides, the results for the AC50 in test [16], in [17] and in [18] were 11.7 µM (active), 14.1 µM (active) and 16.5 µM (active), respectively.

For the compound `CCS(=O)(=O)Nc1ccc(-c2nc3cccnc3s2)cc1`, the IC50 in [19] was 12.8 µM (active). For the same compound, the results for the EC50 in test [20] and in test [21] were 92.9 µM (active) and > 53 µM (inactive), respectively.

Source of the values: ChEMBL document CHEMBL1201862, “PubChem BioAssay data set” (2004).
